From patent US11111214B2 (priority 2013, dated 2021)
pEC50, pIC50, pKi: −log10 of the molar value.

Tests used:
[1] = target: T1, recombinant human kappa (KOR) opioid receptor (Homo sapiens, UniProt P41145); assay: biochemical; format: binding
T1 construct: expressed in transfected cells; host or cells: CHO-K1 cell membranes

[2] = target: T2, recombinant human mu (MOR) opioid receptor (Homo sapiens, UniProt P35372); assay: biochemical; format: binding; details: for inhibition at 10 µM: read-out: Mu receptor % inhibition at single concentration, % inhibition @ 10 μM
T2 construct: expressed in transfected cells; host or cells: CHO-K1 cell membranes
T2 sequence (P35372 whole entry): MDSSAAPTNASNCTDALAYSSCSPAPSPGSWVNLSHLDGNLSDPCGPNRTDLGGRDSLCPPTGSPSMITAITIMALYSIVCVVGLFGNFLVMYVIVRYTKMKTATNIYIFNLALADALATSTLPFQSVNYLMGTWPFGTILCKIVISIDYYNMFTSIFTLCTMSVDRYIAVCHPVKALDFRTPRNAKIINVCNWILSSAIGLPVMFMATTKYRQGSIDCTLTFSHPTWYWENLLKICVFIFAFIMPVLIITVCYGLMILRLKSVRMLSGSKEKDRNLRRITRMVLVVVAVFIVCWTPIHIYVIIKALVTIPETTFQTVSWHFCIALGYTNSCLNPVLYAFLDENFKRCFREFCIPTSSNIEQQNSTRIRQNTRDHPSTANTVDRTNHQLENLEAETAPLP

[3] = target: T3, KOR (kappa opioid receptor) (Homo sapiens, UniProt P41145); assay: cell-based
T3 construct: expressed in transfected cells; host or cells: CHO-K1 cells stably expressing KOR
T3 sequence (P41145 whole entry): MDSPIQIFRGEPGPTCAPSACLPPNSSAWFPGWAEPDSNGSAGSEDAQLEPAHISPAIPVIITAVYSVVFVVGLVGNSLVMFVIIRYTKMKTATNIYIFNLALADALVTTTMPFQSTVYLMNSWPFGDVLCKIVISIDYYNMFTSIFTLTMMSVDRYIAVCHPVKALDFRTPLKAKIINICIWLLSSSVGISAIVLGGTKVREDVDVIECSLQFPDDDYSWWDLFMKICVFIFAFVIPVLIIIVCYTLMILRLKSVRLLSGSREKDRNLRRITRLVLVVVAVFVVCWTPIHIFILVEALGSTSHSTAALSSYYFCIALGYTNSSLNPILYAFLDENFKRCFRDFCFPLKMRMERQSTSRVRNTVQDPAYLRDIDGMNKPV

T1 sequence (P41145 whole entry): as above

Compound | pIC50 [1] | pKi [1] | pIC50 [2] | inhibition at 10 µM [2] [%] | pEC50 [3]
CN(C(=O)Cc1ccc(Cl)c(Cl)c1)[C@H](CN1CC[C@H](OCCOCCO)C1)c1ccccc1 [compound 26, 2-(3,4-Dichlorophenyl)-N-[(1S)-2-{(3S)-3-[2-(2-hydroxyethoxy)ethoxy]pyrrolidin-1-yl}-1-phenylethyl]-N-methylacetamide] | 5.95 | 6.83 | 4.41 | 35.1 | 7.84
CN(C(=O)Cc1ccc(Cl)c(Cl)c1)[C@H](CN1CC[C@H](OCCOCC(=O)O)C1)c1ccccc1 [compound 28, [2-({(3S)-1-[(2S)-2-{[(3,4-Dichlorophenyl)acetyl](methyl)amino}-2-phenylethyl]pyrrolidin-3-yl}oxy)ethoxy]acetic Acid] | 5.68 | 6.56 | 4.13 | 4.9 | 6.83
CN(C(=O)Cc1ccc(Cl)c(Cl)c1)[C@H](CN1CCCC1)c1cccc(NS(=O)(=O)C2CS(=O)(=O)CC2O)c1 (stereo partly drawn) [compound 22, 2-(3,4-dichlorophenyl)-N-[(1S)-1-(3-{[(4-hydroxy-1,1-dioxidotetrahydrothiophen-3-yl)sulfonyl]amino}phenyl)-2-(pyrrolidin-1-yl)ethyl]-N-methylacetamide] | 9.49 | 10.15 |  | 90.2 | 10.52
CCCCOCCOCCOCCS(=O)(=O)Nc1cccc([C@@H](CN2CCCC2)N(C)C(=O)Cc2ccc(Cl)c(Cl)c2)c1 [compound 21, N-[(1S)-1-{3-[({2-[2-(2-butoxyethoxy)ethoxy]ethyl}sulfonyl)amino]phenyl}-2-(pyrrolidin-1-yl)ethyl]-2-(3,4-dichlorophenyl)-N-methylacetamide] | 9.74 | 10.40 |  | 96.5 | 9.70
COCCOCCOCCOCCOCCNC(=O)Nc1cccc([C@@H](CN2CCCC2)N(C)C(=O)Cc2ccc(Cl)c(Cl)c2)c1 [compound 15, 2-(3,4-dichlorophenyl)-N-methyl-N-[(1S)-1-{3-[(2,5,8,11,14-pentaoxahexadecan-16-ylcarbamoyl)amino]phenyl}-2-(pyrrolidin-1-yl)ethyl]acetamide] | 8.63 | 9.27 |  | 84.1 | 9.38
COCCOCCS(=O)(=O)Nc1cccc([C@@H](CN2CCCC2)N(C)C(=O)Cc2ccc(Cl)c(Cl)c2)c1 [compound 20, 2-(3,4-dichlorophenyl)-N-[(1S)-1-[3-({[2-(2-methoxyethoxy)ethyl]sulfonyl}amino)phenyl]-2-(pyrrolidin-1-yl)ethyl]-N-methylacetamide] | 9.22 | 9.85 |  | 97.1 | 9.82
COCCOCCOCCOCCOCCOCCOCCOC(=O)NC1(C(=O)Nc2cccc([C@@H](CN3CC[C@H](O)C3)N(C)C(=O)Cc3ccc(Cl)c(Cl)c3)c2)CC1 [compound 49, 2,5,8,11,14,17,20-Heptaoxadocosan-22-yl {1-[(3-{(1S)-1-{[(3,4dichlorophenyl)acetyl](methyl)amino}-2-[(3S)-3-hydroxypyrrolidin-1yl]ethyl}phenyl)carbamoyl]cyclopropyl}carbamate] | 8.79 | 9.43 |  | 78.1 | 9.96
CCCCOCCOCCOCCS(=O)(=O)Nc1cccc([C@@H](CN2CCCC2)N(C)C(=O)Cc2ccccn2)c1 [compound 30, N-[(1S)-1-{3-[({2-[2-(2-Butoxyethoxy)ethoxy]ethyl}sulfonyl)amino]phenyl}-2-(pyrrolidin-1-yl)ethyl]-N-methyl-2-(pyridin-2-yl)acetamide] | 6.33 | 7.22 |  | 85.5 | 7.41
COCCOCCOCCO[C@H]1CCN(C[C@H](c2ccc(OCCO)cc2)N(C)C(=O)Cc2ccc(Cl)c(Cl)c2)C1 [compound 37, 2-(3,4-Dichlorophenyl)-N-{(1S)-1-[4-(2-hydroxyethoxy)phenyl]-2-[(3S)-3-{2-[2-(2-methoxyethoxy)ethoxy]ethoxy}pyrrolidin-1-yl]ethyl}-N-methylacetamide] | 7.01 | 7.65 |  | 57.8 | 8.38
COCCOCCOCCOCCOCCO[C@H]1CCN(C[C@H](c2ccccc2)N(C)C(=O)Cc2ccccc2[N+](=O)[O-])C1 [compound 41, N—((S)-2-((S)-3-(2,5,8,11,14-pentaoxahexadecan-16-yloxy)pyrrolidin-1-yl)-1-phenylethyl)-N-methyl-2-(2-nitrophenyl)acetamide] | 5.28 | 5.92 |  | 20.5 | 
CN(C(=O)C(c1ccccc1)c1ccccc1)[C@H](CN1CCCC1)c1cccc(N)c1 [compound 51, (S)—N-Methyl-N-(1-(3-aminophenyl)-2-(pyrrolidin-1-yl)ethyl)-2,2-diphenylacetamide] | 7.21 | 7.84 |  | 54.5 | 8.29
COCCOCCOCCOCCOCCO[C@H]1CCN(C[C@H](c2ccccc2)N(C)C(=O)CNc2ccccc2)C1 [compound 8, N-Methyl-N-{(1S)-2-[(3S)-3-(2,5,8,11,14-pentaoxahexadecan-16-yloxy)pyrrolidin-1-yl]-1-phenylethyl}-N^2-phenylglycinamide] | 5.83 | 6.47 |  | 47.5 | 7.13
COCCOCCOCCOCCOCCNC(=O)Nc1cccc([C@@H](CN2CCCC2)N(C)C(=O)C(c2ccc(Cl)cc2)c2ccc(Cl)cc2)c1 [compound 16, 2,2-Bis(4-chlorophenyl)-N-methyl-N-[(1S)-1-{3-[(2,5,8,11,14-pentaoxahexadecan-16-ylcarbamoyl)amino]phenyl}-2-(pyrrolidin-1-yl)ethyl]acetamide] | 7.20 | 7.84 |  | 27.1 | 7.82
COCCOCCOCCOCCOCCN1CCN(C[C@H](c2ccccc2)N(C)C(=O)Cc2ccc(Cl)c(Cl)c2)CC1 [compound 39, (S)—N-(2-(4-(2,5,8,11,14-pentaoxahexadecan-16-yl)piperazin-1-yl)-1-phenylethyl)-2-(3,4-dichlorophenyl)-N-methylacetamide] | 4.73 | 5.37 |  | 9.6 | 5.71
COCCS(=O)(=O)Nc1cccc([C@@H](CN2CCCC2)N(C)C(=O)Cc2ccc(Cl)c(Cl)c2)c1 [compound 18, 2-(3,4-dichlorophenyl)-N-[(1S)-1-(3-{[(2-methoxyethyl)sulfonyl]amino}phenyl)-2-(pyrrolidin-1-yl)ethyl]-N-methylacetamide] | 9.24 | 9.89 |  | 97.8 | 10.05
CN(C(=O)Cc1ccc(Cl)c(Cl)c1)[C@H](CN1CC[C@H](O)C1)c1ccc(OCCO)cc1 [compound 38, 2-(3,4-dichlorophenyl)-N—((S)-1-(4-(2-hydroxyethoxy)phenyl)-2-((S)-3-hydroxypyrrolidin-1-yl)ethyl)-N-methylacetamide] | 9.31 | 10.22 |  | 87.2 | 10.52
CN(C(=O)Cc1ccc(Cl)c(Cl)c1)[C@H](CN1CC[C@H](OCCO)C1)c1ccccc1 [compound 25, 2-(3,4-Dichlorophenyl)-N-{(1S)-2-[(3S)-3-(2-hydroxyethoxy)pyrrolidin-1-yl]-1-phenylethyl}-N-methylacetamide] | 7.50 | 8.38 | 5.35 | 57.5 | 8.39
CN(C(=O)Cc1ccc(Cl)c(Cl)c1)[C@H](CN1CCCC1)c1cccc(NS(C)(=O)=O)c1 [compound 14, 2-(3,4-dichlorophenyl)-N-methyl-N-[(1S)-1-{3-[(methylsulfonyl)amino]phenyl}-2-(pyrrolidin-1-yl)ethyl]acetamide] | 9.47 | 10.10 |  | 99.3 | 10.30
COCCOCC(=O)Nc1cccc([C@@H](CN2CC[C@H](O)C2)N(C)C(=O)Cc2ccc(Cl)c(Cl)c2)c1 [compound 50, 2-(3,4-dichlorophenyl)-N-[(1S)-2-[(3S)-3-hydroxypyrrolidin-1-yl]-1-(3-{[(2-methoxyethoxy)acetyl]amino}phenyl)ethyl]-N-methylacetamide] | 9.28 | 9.92 |  | 101 | 10.22
COCCOCCOCCOCCOCCOCC(=O)Nc1cccc([C@@H](CN2CCCC2)N(C)C(=O)C(c2ccccc2)c2ccccc2)c1 [compound 12, N-{3-[(1S)-1-[(Diphenylacetyl)(methyl)amino]-2-(pyrrolidin-1-yl)ethyl]phenyl}-2,5,8,11,14,17-hexaoxanonadecan-19-amide] | 6.07 | 6.71 | 4.27 | 46.5 | 7.44
COCCOCCOCCOCCOCCO[C@H]1CCN(C[C@H](c2ccccc2)N(C)C(=O)C(c2ccccc2)c2ccccc2)C1 [compound 9, N-Methyl-N-{(1S)-2-[(3S)-3-(2,5,8,11,14-pentaoxahexadecan-16-yloxy)pyrrolidin-1-yl]-1-phenylethyl}-2,2-diphenylacetamide] | 5.05 | 5.68 |  | 36.9 | 6.75
COCCOCCOCCO[C@H]1CCN(C[C@H](c2ccc(C(F)(F)F)cc2)N(C)C(=O)Cc2ccc(Cl)c(Cl)c2)C1 [compound 33, 2-(3,4-Dichlorophenyl)-N-{(1S)-2-[(3S)-3-{2-[2-(2-methoxyethoxy)ethoxy]ethoxy}pyrrolidin-1-yl]-1-[4-(trifluoromethyl)phenyl]ethyl}-N-methylacetamide] | 5.91 | 6.54 |  | 84.1 | 
COCCOCCOCCOCCOCCOc1ccc(CC(=O)N(C)[C@H](CN2CCCC2)c2ccccc2)cc1 [compound 13, N-Methyl-2-[4-(2,5,8, 11, 14-pentaoxahexadecan-16-yloxy)phenyl]-N-[(1S)-1-phenyl-2-(pyrrolidin-1-yl)ethyl]acetamide] | 5.88 | 6.52 |  | 69.9 | 
